Results as given in US11566007B2, “Ras inhibitors” (Revolution Medicines, Inc., priority 2019, dated 2023).

Tests used:
NCI-H358 (K-Ras G12C) = experiment: CellTiter-Glo cell viability assay, NCI-H358; assay type: cell-based, human; details: Homo sapiens, NCI-H358, 120 h, NCI-H358, 5-day treatment; class symbols; read-out: Additional H358 Cell Viability assay data (K-Ras G12C, IC50)
Method in brief: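 Steps: compound dispensed into wells holding cells; incubation to day 5; ~30 min room-temperature equilibration; luminescence read; sample signal divided by mean DMSO signal, times 100; four-parameter logistic curve fit.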

K-Ras G12C = K-Ras G12C (Homo sapiens (Human), UniProt P01116+P62937, G12C); experiment: Ras-Raf (BRAF RBD) disruption / FRET / MOA assay, KRAS G12C; assay type: biochemical; details: KRAS G12C; Ras-Raf disruption/FRET/MOA assay; read-out: IC50* KRAS G12C FRET data
K-Ras G12C, sequence (P01116-2 other isoform, or with tags, fused parts or gaps G12C): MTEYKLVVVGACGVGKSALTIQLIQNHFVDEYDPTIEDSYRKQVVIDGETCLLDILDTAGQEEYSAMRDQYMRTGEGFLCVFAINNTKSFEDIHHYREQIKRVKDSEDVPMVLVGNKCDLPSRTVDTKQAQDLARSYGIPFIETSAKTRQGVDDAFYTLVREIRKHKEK
K-Ras G12C, sequence (P62937 whole entry): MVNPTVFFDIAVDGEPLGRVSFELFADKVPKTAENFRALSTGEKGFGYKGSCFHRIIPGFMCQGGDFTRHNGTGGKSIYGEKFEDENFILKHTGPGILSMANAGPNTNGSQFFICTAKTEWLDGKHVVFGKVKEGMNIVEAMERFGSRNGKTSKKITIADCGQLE
Method in brief: (§1)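 TR-FRET read-out: a drop in ratio relative to DMSO wells marks disruption of the Ras:RAF complex, reported as IC50. Compounds (3-fold series, 10 points, top 30 μM final) incubated 3 h at 25° C before Eu-anti-His 10 nM and APC-anti-GST 50 nM, 1.5 h more.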

KRAS G12D = KRAS G12D (Homo sapiens (Human), UniProt P01116+P62937, G12D); experiment: Ras-Raf (BRAF RBD) disruption / FRET / MOA assay, KRAS G12D; assay type: biochemical; details: Ras-Raf disruption/FRET/MOA assay; class symbols; read-out: KRAS G12D FRET data IC50
KRAS G12D, sequence (P01116-2 other isoform, or with tags, fused parts or gaps G12D): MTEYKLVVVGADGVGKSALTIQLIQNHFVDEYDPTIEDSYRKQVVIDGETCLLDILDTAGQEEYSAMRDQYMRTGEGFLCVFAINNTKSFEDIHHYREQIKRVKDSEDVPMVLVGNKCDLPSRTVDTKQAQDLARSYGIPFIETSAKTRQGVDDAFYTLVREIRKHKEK
KRAS G12D, sequence (P62937 whole entry): as the sequence (P62937 whole entry) above
Method in brief: as §1

KRAS Q61H = KRAS Q61H (Homo sapiens (Human), UniProt P01116+P62937, Q61H); experiment: Ras-Raf (BRAF RBD) disruption / FRET / MOA assay, KRAS Q61H; assay type: biochemical; details: Ras-Raf disruption/FRET/MOA assay; class symbols; read-out: KRAS Q61H FRET data IC50
KRAS Q61H, sequence (P01116-2 other isoform, or with tags, fused parts or gaps Q61H): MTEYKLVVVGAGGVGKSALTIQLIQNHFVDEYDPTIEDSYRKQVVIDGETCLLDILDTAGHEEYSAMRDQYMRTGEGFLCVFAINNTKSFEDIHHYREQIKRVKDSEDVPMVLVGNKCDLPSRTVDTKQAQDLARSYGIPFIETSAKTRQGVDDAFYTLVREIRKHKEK
KRAS Q61H, sequence (P62937 whole entry): as the sequence (P62937 whole entry) above
Method in brief: (§2)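 Compounds were tested as a 10-point 3-fold dilution series from 30 μM final for their ability to drive ternary complex formation between nucleotide-loaded Ras and cyclophilin A, displacing the BRAF RBD. After 3 h at 25° C., anti-His Eu-W1024 (10 nM) and anti-GST allophycocyanin (50 nM) were added for 1.5 h. A TR-FRET ratio decrease versus DMSO gave IC50.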

NRAS Q61R = NRAS Q61R (Homo sapiens (Human), UniProt P01111+P62937, Q61R); experiment: Ras-Raf (BRAF RBD) disruption / FRET / MOA assay, NRAS Q61R; assay type: biochemical; details: NRAS Q61R; Ras-Raf disruption/FRET/MOA assay; read-out: IC50* NRAS Q61R FRET data
NRAS Q61R, sequence (P01111 whole entry Q61R): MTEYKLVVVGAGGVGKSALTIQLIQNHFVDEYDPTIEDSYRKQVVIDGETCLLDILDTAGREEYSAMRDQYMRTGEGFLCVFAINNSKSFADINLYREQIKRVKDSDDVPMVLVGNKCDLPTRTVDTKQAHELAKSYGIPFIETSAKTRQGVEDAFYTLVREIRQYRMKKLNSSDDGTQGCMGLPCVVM
NRAS Q61R, sequence (P62937 whole entry): as the sequence (P62937 whole entry) above
Method in brief: as §2

NRAS WT = NRAS WT (Homo sapiens (Human), UniProt P01111+P62937); experiment: Ras-Raf (BRAF RBD) disruption / FRET / MOA assay, NRAS WT; assay type: biochemical; details: read-out: IC50* NRAS WT FRET data
NRAS WT, sequence (P01111 whole entry): as the sequence (P01111 whole entry Q61R) above, with R61Q counted along it
NRAS WT, sequence (P62937 whole entry): as the sequence (P62937 whole entry) above
Method in brief: as §2

| Structure (SMILES) | IC50 (NCI-H358 (K-Ras G12C)) | IC50 (K-Ras G12C) | IC50 (KRAS G12D) | IC50 (KRAS Q61H) | IC50 (NRAS Q61R) | IC50 (NRAS WT) |
| --- | --- | --- | --- | --- | --- | --- |
| CCn1c(-c2cccnc2[C@H](C)OC)c2c3cc(ccc31)-c1csc(n1)C[C@H](NC(=O)[C@@H](COC1CN(C(=O)C#CC(C)(C)N(C)C)C1)OC)C(=O)N1CCC[C@H](N1)C(=O)OCC(C)(C)C2 (atropisomer, axis not shown) [Example A660] | < 10 nM | < 10 nM | 1000 to 10000 nM | 100 to 1000 nM | 1000 to 10000 nM | 100 to 1000 nM |
| CO[C@@H](C)c1ncccc1-c1c2c3cc(ccc3n1CC(F)(F)F)-c1cnc(o1)C[C@H](NC(=O)[C@H](C(C)C)N(C)C(=O)[C@H]1CCN(C(=O)C#CC(C)(C)N(C)C)C1)C(=O)N1CCC[C@H](N1)C(=O)OCC(C)(C)C2 (atropisomer, axis not shown) [Example A707] | < 10 nM | < 10 nM | 1000 to 10000 nM | 1000 to 10000 nM | > 10000 nM | 1000 to 10000 nM |
| C=CC(=O)N(C)CCC1CCN(C(=O)N(C)[C@H](C(=O)N[C@H]2Cc3nc(cs3)-c3ccc4c(c3)c(c(-c3cccnc3[C@H](C)OC)n4CC)CC(C)(C)COC(=O)[C@@H]3CCCN(N3)C2=O)C(C)C)CC1 (atropisomer, axis not shown) [Example A621] | < 10 nM | 10 to 100 nM | 100 to 1000 nM | < 10 nM | 10 to 100 nM | 10 to 100 nM |
| C=CC(=O)N(C)[C@@H]1CCN(C(=O)N(C)[C@H](C(=O)N[C@H]2Cc3nc(cs3)-c3ccc4c(c3)c(c(-c3cccnc3[C@H](C)OC)n4CC)CC(C)(C)COC(=O)[C@@H]3CCCN(N3)C2=O)C(C)C)C1 (atropisomer, axis not shown) [Example A416] | < 10 nM | 10 to 100 nM | 1000 to 10000 nM | 10 to 100 nM | 100 to 1000 nM | 100 to 1000 nM |
| CO[C@@H](C)c1ncccc1-c1c2c3cc(ccc3n1CC(F)(F)F)-c1nc(ns1)C[C@H](NC(=O)[C@@H](COC1CN(C(=O)C#CC(C)(C)N(C)C)C1)C(C)C)C(=O)N1CCC[C@H](N1)C(=O)OCC(C)(C)C2 (atropisomer, axis not shown) [Example A590, (2R)-2-(((1-(4-(dimethylamino)-4-methylpent-2-ynoyl)azetidin-3-yl)oxy)methyl)-N-((6^3S,4S,Z)-1^2-(2-((S)-1-methoxyethyl)pyridin-3-yl)-10,10-dimethyl-5,7-dioxo-1^1-(2,2,2-trifluoroethyl)-6^1,6^2,6^3,6^4,6^5,6^6-hexahydro-1^1H-8-oxa-2(5,3)-thiadiazola-1(5,3)-indola-6(1,3)-pyridazinacycloundecaphane-4-yl)-3-methylbutanamide] | < 10 nM | 10 to 100 nM | > 10000 nM | 1000 to 10000 nM | > 10000 nM | 1000 to 10000 nM |
| C=CC(=O)N(C)C1CCN(C(=O)N(C)[C@H](C(=O)N[C@H]2Cc3nc(cs3)-c3ccc4c(c3)c(c(-c3cccnc3[C@H](C)OC)n4CC)CC(C)(C)COC(=O)[C@@H]3CCCN(N3)C2=O)C(C)C)CC1 (atropisomer, axis not shown) [Example A383] | < 10 nM | 10 to 100 nM | 100 to 1000 nM | 10 to 100 nM | 10 to 100 nM | 10 to 100 nM |
| C=CC(=O)N(C)[C@@H]1CCCN(C(=O)N(C)[C@H](C(=O)N[C@H]2Cc3nc(cs3)-c3ccc4c(c3)c(c(-c3cccnc3[C@H](C)OC)n4CC)CC(C)(C)COC(=O)[C@@H]3CCCN(N3)C2=O)C(C)C)C1 (atropisomer, axis not shown) [Example A382] | < 10 nM | 10 to 100 nM | 100 to 1000 nM | 10 to 100 nM | 10 to 100 nM | 10 to 100 nM |
| C=CC(=O)N1CCO[C@H]2CN(C(=O)N(C)[C@H](C(=O)N[C@H]3Cc4cccc(n4)-c4ccc5c(c4)c(c(-c4cccnc4[C@H](C)OC)n5CC)CC(C)(C)COC(=O)[C@@H]4CCCN(N4)C3=O)C(C)C)C[C@H]21 (atropisomer, axis not shown) [Example A597] | < 10 nM | 10 to 100 nM | > 10000 nM | 100 to 1000 nM | 100 to 1000 nM | 1000 to 10000 nM |
| CCn1c(-c2cccnc2[C@H](C)OC)c2c3cc(ccc31)N1CCO[C@@H](C[C@H](NC(=O)[C@H](C(C)C)N(C)C(=O)[C@@]3(F)CCC(C(=O)C#CC(C)(C)N4CCC4)C3)C(=O)N3CCC[C@H](N3)C(=O)OCC(C)(C)C2)C1 (stereo partly drawn) [Example A726] | < 10 nM | < 10 nM | > 10000 nM | 1000 to 10000 nM | > 10000 nM | 1000 to 10000 nM |
| C=CC(=O)N1CCN(C(=O)N(C)[C@H](C(=O)N[C@H]2Cc3nc(cs3)-c3ccc4c(c3)c(c(-c3cccnc3[C@H](C)OC)n4CC)CC(C)(C)COC(=O)[C@@H]3CCCN(N3)C2=O)C(C)C)CC1 (atropisomer, axis not shown) [Example A491] | < 10 nM | 10 to 100 nM | 100 to 1000 nM | 10 to 100 nM | 10 to 100 nM | 10 to 100 nM |
| C=CC(=O)N1CCN(C(=O)N(C)[C@H](C(=O)N[C@H]2Cc3cc(O)cc(c3)-c3ccc4c(c3)c(c(-c3cccnc3[C@H](C)OC)n4CC)CC(C)(C)COC(=O)[C@@H]3CCCN(N3)C2=O)C(C)C)CC1 (atropisomer, axis not shown) [Example A262] | 10 to 100 nM | 10 to 100 nM | 100 to 1000 nM | 10 to 100 nM | 100 to 1000 nM | 10 to 100 nM |
| C=CC(=O)N1CCC(C(=O)N(C)[C@H](C(=O)N[C@H]2Cc3cc(CF)cc(c3)-c3ccc4c(c3)c(c(-c3cccnc3[C@H](C)OC)n4CC(F)(F)F)CC(C)(C)COC(=O)[C@@H]3CCCN(N3)C2=O)C(C)C)C1 (stereo partly drawn) [Example A659] | < 10 nM | 10 to 100 nM | 1000 to 10000 nM | 100 to 1000 nM | 100 to 1000 nM | 100 to 1000 nM |
| C=CC(=O)N1CCN(C(=O)N(C)[C@H](C(=O)N[C@H]2Cc3nc(cs3)-c3ccc4c(c3)c(c(-c3cccnc3[C@H](C)OC)n4CC)CC(C)(C)COC(=O)[C@@H]3CCCN(N3)C2=O)C(C)C)[C@@H]2C[C@@H]21 (atropisomer, axis not shown) [Example A736] | < 10 nM | 10 to 100 nM | 100 to 1000 nM | 10 to 100 nM | 10 to 100 nM | 10 to 100 nM |
| C=C(OC)C(=O)N1CC2(CCN(C(=O)N(C)[C@H](C(=O)N[C@H]3Cc4nc(cs4)-c4ccc5c(c4)c(c(-c4cccnc4[C@H](C)OC)n5CC)CC(C)(C)COC(=O)[C@@H]4CCCN(N4)C3=O)C(C)C)CC2)C1 (atropisomer, axis not shown) [Example A681] | 10 to 100 nM | 10 to 100 nM | 100 to 1000 nM | 10 to 100 nM | 100 to 1000 nM | 100 to 1000 nM |
| C=CC(=O)N1CC[C@H](C(=O)N(C)[C@H](C(=O)N[C@H]2Cc3cccc(c3)-c3ccc4c(c3)c(c(-c3cccnc3[C@H](C)OC)n4CC(F)(F)F)CC(C)(C)COC(=O)[C@@H]3CCCN(N3)C2=O)C(C)C)C1 (atropisomer, axis not shown) [Example A332] | < 10 nM | 10 to 100 nM | 1000 to 10000 nM | 100 to 1000 nM | 1000 to 10000 nM | 1000 to 10000 nM |
| C=CC(=O)C1CC[C@H](C(=O)N(C)[C@H](C(=O)N[C@H]2Cc3cc(O)cc(c3)-c3ccc4c(c3)c(c(-c3cnn(C)c3[C@H](C)OC)n4CC)CC(C)(C)COC(=O)[C@@H]3CCCN(N3)C2=O)C(C)C)C1 (stereo partly drawn) [Example A166] | < 10 nM | 10 to 100 nM | 1000 to 10000 nM | 100 to 1000 nM | 1000 to 10000 nM | 100 to 1000 nM |
| CCn1c(-c2cccnc2[C@H](C)OC)c2c3cc(ccc31)-c1cccc(c1)C[C@H](NC(=O)[C@H](C(C)C)N1CO[C@@]3(CCN(C(=O)/C=C/CN(C)C)C3)C1=O)C(=O)N1CCC[C@H](N1)C(=O)OCC(C)(C)C2 (atropisomer, axis not shown) [Example A558] | 10 to 100 nM | 10 to 100 nM | 1000 to 10000 nM | 100 to 1000 nM | 1000 to 10000 nM | 100 to 1000 nM |
| C=CC(=O)N1CCC(F)(C(=O)N(C)[C@H](C(=O)N[C@H]2Cc3nc(cs3)-c3ccc4c(c3)c(c(-c3cccnc3[C@H](C)OC)n4CC)CC(C)(C)COC(=O)[C@@H]3CCCN(N3)C2=O)C(C)C)CC1 (atropisomer, axis not shown) [Example A700] | < 10 nM | 10 to 100 nM | 100 to 1000 nM | 100 to 1000 nM | 100 to 1000 nM | 100 to 1000 nM |
| CCn1c(-c2cccnc2[C@H](C)OC)c2c3cc(ccc31)-c1csc(n1)C[C@H](NC(=O)[C@H](C(C)C)N(C)C(=O)N1CCC3(CC1)CN(C(=O)/C=C/CN1CCCCC1)C3)C(=O)N1CCC[C@H](N1)C(=O)OCC(C)(C)C2 (atropisomer, axis not shown) [Example A670] | 10 to 100 nM | 100 to 1000 nM | 1000 to 10000 nM | 100 to 1000 nM | 100 to 1000 nM | 100 to 1000 nM |
